US20230212239A1, “INHIBITORS OF CBL AUTOINHIBITION AND RELATED METHODS” (THE HOSPITAL FOR SICK CHILDREN, priority 2020, published 2023)
Changes are numbered by the printed parent chain. In names and notes the source's numbering stands. Each block holds one molecule with its values, some of them ahead of it.

Legend:
[1] = target: T1, purified recombinant CBL protein containing the TKBD-LHR-RING region (Homo sapiens, UniProt P22681); test: High-throughput in vitro autoubiquitination assay (modified ELISA-based LifeSensors assay, 384 well), hit validation; format: biochemical; details: validation: triplicate wells; confirmed at percent activation cutoff of at least 20% in at least 2 wells
T1 construct: Residues 25-357 and 2-436 of CBL were cloned in frame into pGEX4T-1; GST (N); made in house
T1 sequence (P22681 2-436): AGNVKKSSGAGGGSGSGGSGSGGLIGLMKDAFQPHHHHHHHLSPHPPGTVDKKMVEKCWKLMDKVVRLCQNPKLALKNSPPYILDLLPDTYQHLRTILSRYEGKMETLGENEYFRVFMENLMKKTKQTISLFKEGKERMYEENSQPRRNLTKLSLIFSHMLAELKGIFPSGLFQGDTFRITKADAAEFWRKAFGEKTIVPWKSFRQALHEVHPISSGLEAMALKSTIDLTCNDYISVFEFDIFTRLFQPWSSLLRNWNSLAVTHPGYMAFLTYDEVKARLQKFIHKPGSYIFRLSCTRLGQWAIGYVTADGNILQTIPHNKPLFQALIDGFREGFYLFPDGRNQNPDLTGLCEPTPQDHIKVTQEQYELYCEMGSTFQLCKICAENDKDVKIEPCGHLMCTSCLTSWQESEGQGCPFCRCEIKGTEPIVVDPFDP
Description: As an approach to identify novel compounds that mimic SLAP2 binding, and thus stimulate CBL E3 ligase activity, an in vitro autoubiquitination assay was developed based on a modification of a commercially available ELISA based assay (LifeSensors, Inc) and adapted to a 384 well high throughput screen (HTS) format (FIG. 13). The assay uses purified recombinant CBL protein containing the TKBD-LHR-RING region and has been optimized using reference controls; phosphorylated CBL, and CBL with or without addition of purified pSLAP2. Reaction components contained in a master mix (E1, E2, free Ub), test compound and purified CBL are free in solution allowing native protein interactions, and polyubiquitin chains are captured by an immobilized ubiquitin binding domain and quantified using an anti-ubiquitin antibody detection method.
Peptidomimetic Screen: A library of 3000 α-helix and β/γ-turn peptidomimetic compounds were screened across 10 384 well plates. A primary screen yielded 14 hits from the OICR Peptidomimetic library (0.47% hit rate). A hit was defined as any compound producing a luminescent signal at least 4 Standard Deviations from the mean of all compounds on the plate (FIG. 14).
Validation experiment: Triplicate wells of hit compounds were randomly dispersed on plates and hits were confirmed based on a percent activation cutoff of at least 20% in at least 2 wells.

CBL TKBD = test: Co-purification of CBL TKBD with Trx-His-SLAP2/SLAP (Duet co-expression, Ni-NTA, SDS-PAGE); format: binding; details: low salt concentration (0.15 M NaCl)
Description: To validate the CBL/SLAP2 binding interface, a series of mutants in a Duet co-expression vector system was generated for co-purification trials. The SLAP2 sequence was preceded by thioredoxin (Trx) and His-tag fusion proteins to allow co-purification of CBL TKBD that was bound to Trx-His-SLAP2 during the initial affinity chromatography purification step. Surface residues deemed to be important to the CBL/SLAP2 interface, but not CBL function or folding, were mutated to disrupt CBL/SLAP2 binding (FIG. 5C and FIG. 6). In our structure, SLAP2 Gly240 locates close to CBL Met269 and Ala270, such that mutation to a bulky Arg residue (G240R) could cause sterical constraints. Similarly, SLAP2 Leu241 is situated in a hydrophobic cleft composed of CBL Ala223, Trp258, and Val263; mutation to Arg (L241R) was predicted to disturb this binding pocket. Mutation of CBL Ala223 to Arg (A223R) would likewise disrupt this pocket, with CBL/SLAP2 double mutant A223R/L241R predicted to drastically disturb binding through sterical constraints and charge repulsion. (For clarity, CBL mutations herein are indicated in italics, SLAP2 in regular font.) Similarly, single or double mutation of CBL Ser226 or SLAP2 Ser244, whose side chain hydroxyl groups are in close proximity to one another, to charged Glu residues (S226E and S244E) was anticipated to interfere with CBL/SLAP2 binding. Finally, given that SLAP2 binds CBL as an α-helix, mutation of Leu245, located in the center of this α-helix, to proline (L245P) was expected to interrupt the helical structure and thus prevent SLAP2 binding. […] However, double mutation of the CBL/SLAP2 interface (A223R/L241R and S226E/S244E; FIG. 5D, lower panel) was not tolerated, even at low salt concentration.
For co-purification of CBL and SLAP2/SLAP, Duet-His-hSLAP2-CBL 29-261 Δ198-229 and 29-254 Δ198-229, Duet-His-Δlinker-hSLAP2-CBL WT and point mutants, and Duet-His-mSLAP-CBL WT and point mutants were overexpressed in E. coli BL-21 as above or TKB1 competent cells (Stratagene) as per manufacturer’s instructions, and cells harvested as above (except 100 mL of LB, overnight at 16-18° C., and 0.35-0.5 mM IPTG induction). Cell pellets were resuspended in either high or low salt (as for high salt except 25 mM HEPEs pH 7.5, 150 mM NaCl) lysis buffer and purified as above on Ni-NTA agarose (Qiagen) with wash buffer (25 mM HEPEs pH 7.5, 150 mM NaCl, 2% glycerol, 20 mM imidazole, 10 mM βME). Bead slurry was mixed with SDS 2X loading buffer (125 mM Tris pH 6.8, 4% SDS, 20% glycerol, 0.715 M βME, bromophenol blue), boiled, and analyzed by 10 or 12.5% SDS-PAGE, stained with Coomassie blue.

- confirmed hit: CBL activation [1]: active
Molecule: CC(C)OCCCNC(=O)c1cnc2scc(-c3ccccc3)n2c1=O [Hit 10, 5-oxo-3-phenyl-N-[3-(propan-2-yloxy)propyl]-5H-[1,3]thiazolo[3,2-a]pyrimidine-6-carboxamide]

- confirmed hit: CBL activation [1]: active
Molecule: O=S(=O)(Nc1ccc(OC(F)(F)F)cc1)c1ccc(-c2cnc(C3CCC3)o2)s1 [Hit 6, 5-(2-cyclobutyl-1,3-oxazol-5-yl)-N-[4-(trifluoromethoxy)phenyl]thiophene-2-sulfonamide]

- confirmed hit: CBL activation [1]: active
Molecule: O=S(=O)(Nc1cccc(Br)c1)c1ccc(-c2nnc(C3CCC3)o2)s1 [Hit 2, N-(3-bromophenyl)-5-(5-cyclobutyl-1,3,4-oxadiazol-2-yl)thiophene-2-sulfonamide]

- confirmed hit: CBL activation [1]: active
Molecule: O=S(=O)(Nc1ccc(Cl)c(C(F)(F)F)c1)c1cc(-c2noc(C3CCC3)n2)cs1 [Hit 5, N-[4-chloro-3-(trifluoromethyl)phenyl]-4-(5-cyclobutyl-1,2,4-oxadiazol-3-yl)thiophene-2-sulfonamide]

- confirmed hit: CBL activation [1]: active
Molecule: Cc1ccc(CN2CCN(CC(=O)Nc3ccc(C(C)C)cc3)C(=O)C2=O)cc1 [Hit 8, 2-{4-[(4-methylphenyl)methyl]-2,3-dioxopiperazin-1-yl}-N-[4-(propan-2-yl)phenyl]acetamide]

- confirmed hit: CBL activation [1]: active
Molecule: COc1ccc(S(=O)(=O)Nc2cccn3c(C4CCC4)nnc23)cc1Cl [Hit 3, 3-chloro-N-{3-cyclobutyl-[1,2,4]triazolo[4,3-a]pyridin-8-yl}-4-methoxybenzene-1-sulfonamide]

- confirmed hit: CBL activation [1]: active
Molecule: Cc1ccc(S(=O)(=O)N2C(=O)CCC2C(=O)Nc2cccc3ccccc23)cc1 (stereo not drawn) [Hit 7, 1-(4-methylbenzenesulfonyl)-N-(naphthalen-1-yl)-5-oxopyrrolidine-2-carboxamide]

- confirmed hit: CBL activation [1]: active
Molecule: O=C(NCC(=O)N1CCN(c2ccc(-c3noc(C4CCC4)n3)cc2)CC1)c1ccco1 [Hit 9, N-(2-{4-[4-(5-cyclobutyl-1,2,4-oxadiazol-3-yl)phenyl]piperazin-1-yl}-2-oxoethyl)furan-2-carboxamide]

- confirmed hit: CBL activation [1]: active
Molecule: Cc1cc2c(cc1C(=O)NCc1c(F)cccc1Cl)OCCCO2 [Hit 1, N-[(2-chloro-6-fluorophenyl)methyl]-8-methyl-3,4-dihydro-2H-1,5-benzodioxepine-7-carboxamide]

- confirmed hit: CBL activation [1]: active
Molecule: COc1ccc(CNC(=O)C2(C)CCCN(S(=O)(=O)c3cccc(C(F)(F)F)c3)C2)cc1 (stereo not drawn) [Hit 4, N-[(4-methoxyphenyl)methyl]-3-methyl-1-[3-(trifluoromethyl)benzenesulfonyl]piperidine-3-carboxamide]

B1: SLAP L241R: mouse SLAP interface mutant analogous to SLAP2 L241R (protein, UniProt Q60898 2-281, looked up, variant L241R)
Src-like-adapter: GNSMKSTSPPSERPLSSSEGLESDFLAVLTDYPSPDISPPIFRRGEKLRVISDEGGWWKAISLSTGRESYIPGICVARVYHGWLFEGLGRDKAEELLQLPDTKIGSFMIRESETKKGFYSLSVRHRQVKHYRIFRLPNNWYYISPRLTFQCLEDLVTHYSEVADGLCCVLTTPCLAQNIPAPTSHPSPCTSPGSPVTLRQKTFDWKRVSRLQEGSEGAENPLRVDESLFSYGLRESIASYRSLTGDDSSSFDRKKKSLSLMYTGSKRKSSFFSAPQYFED
- CBL TKBD co-purification (CBL TKBD): abrogated CBL co-purification

B2: SLAP2 L241R: SLAP2 interface point mutant Leu241 to Arg (protein)
chain: EAERSKATAVALGSFPAGGPAELSLRLGEPLTIVSEDGDWWTVLSEVSGREYNIPSVHVAKVSHGWLYEGLSREKAEELLLLPGNPGGAFLIRESQTRRGSYSLSVRLSRPASWDRIRHYRIHCLDNGWLYISPRLTFPSLQALVDHYSELADDICCLLKEPCVLQRAGPLPGKDIPLPVTVQRTPLNWKELDSSLLFSEAATGEESLLSEGRRESLSFYISLNDEAVSLDDA
modifications: left off: large carriers; small tags and cut ends
notes: SLAP2 interface point mutant Leu241 to Arg
- CBL TKBD co-purification (CBL TKBD): abrogated CBL co-purification

B3: SLAP2 S244E: SLAP2 interface point mutant Ser244 to Glu (protein)
chain: B2 chain with R213L, S216E
modifications: left off: large carriers; small tags and cut ends
notes: SLAP2 interface point mutant Ser244 to Glu
- CBL TKBD co-purification (CBL TKBD): tolerated

B4: SLAP2 L245P: SLAP2 point mutant Leu245 to proline, expected to interrupt the helix (protein)
chain: B2 chain with R213L, L217P
modifications: left off: large carriers; small tags and cut ends
notes: SLAP2 point mutant Leu245 to proline, expected to interrupt the helix
- CBL TKBD co-purification (CBL TKBD): abrogated CBL co-purification

B5: SLAP2 G240R: SLAP2 interface point mutant Gly240 to Arg (protein)
chain: B2 chain with G212R, R213L
modifications: left off: large carriers; small tags and cut ends
notes: SLAP2 interface point mutant Gly240 to Arg
- CBL TKBD co-purification (CBL TKBD): tolerated
